Laboratory results as given in the supplement of paper PMC11451515.

Tests used:
Conditions in all cases: 48 h
NOMO1 [1] = assay: cell viability relative to DMSO control; higher = less cytotoxic
Method in brief: (§1)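 Viability values are per-plate percentages of DMSO wells, with background from cell-free wells. Library compounds in DMSO were pin-dosed, in an 11-point threefold series from 47 μM to 0.79 nM, onto NOMO1 or SEM (500 cells/well) or P12-Ichikawa (1000 cells/well) leukemia cells in 1536-well plates (5 μl). Those cells had been adapted for at least four passages in each medium, and CellTiter-Glo One luminescence was read after 48 h at 37°C.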

P12-Ichikawa [2] = assay: as above
Method in brief: as §1

SEM cells [3] = assay: as above
Method in brief: as §1

NOMO1 [4] = assay: AUC of viability dose-response curve (% viability x log10 dose units); higher = less sensitive
Method in brief: (§2)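 Leukemia cells adapted to each medium (500 or 1000 cells/well, 1536-well plates) were exposed to library compounds in DMSO for 48 h at 37°C at 11 threefold doses, 47 μM to 0.79 nM. Luminescence by CellTiter-Glo One was normalised per plate to DMSO and cell-free wells, then fitted with a four-parameter log-logistic curve on log10 dose. Curves above full viability were scaled and quality-control failures removed before area under the curve was integrated by trapezoidal rule.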

P12-Ichikawa [5] = assay: as above
Method in brief: as §2

SEM cells [6] = assay: as above
Method in brief: as §2

N=C(N)Nc1ccc(C(=O)Oc2ccc3cc(C(=N)N)ccc3c2)cc1
cell viability [%]
Conditions | NOMO1 [1] | P12-Ichikawa [2] | SEM cells [3]
HPLM + 10% dialyzed FBS, 0.000781 µM | 96.3 | 88.3 | 95.5
HPLM + 10% dialyzed FBS, 0.00234 µM | 103 | 104 | 87.7
HPLM + 10% dialyzed FBS, 0.00702 µM | 100 | 98.8 | 87.7
HPLM + 10% dialyzed FBS, 0.0211 µM | 100 | 92.5 | 92.8
HPLM + 10% dialyzed FBS, 0.0632 µM | 101 | 103 | 96.7
HPLM + 10% dialyzed FBS, 0.19 µM | 95.6 | 95.5 | 25.8
HPLM + 10% dialyzed FBS, 0.569 µM | 93.5 | 88.6 | 102
HPLM + 10% dialyzed FBS, 1.71 µM | 100 | 83.9 | 105
HPLM + 10% dialyzed FBS, 5.12 µM | 81.1 | 87.9 | 95.4
HPLM + 10% dialyzed FBS, 15.4 µM | 89.6 | 87.4 | 99.4
HPLM + 10% dialyzed FBS, 46.1 µM | 48 | 72.3 | 79.2
RPMI 5 mM glucose + 10% FBS, 0.000781 µM | 93.7 | 96.4 | 91.5
RPMI 5 mM glucose + 10% FBS, 0.00234 µM | 84.8 | 93 | 87.6
RPMI 5 mM glucose + 10% FBS, 0.00702 µM | 83.5 | 99.4 | 85.5
RPMI 5 mM glucose + 10% FBS, 0.0211 µM | 86.6 | 90.5 | 83.1
RPMI 5 mM glucose + 10% FBS, 0.0632 µM | 90.8 | 102 | 86.1
RPMI 5 mM glucose + 10% FBS, 0.19 µM | 86 | 95.9 | 21.5
RPMI 5 mM glucose + 10% FBS, 0.569 µM | 90.7 | 91.1 | 88.7
RPMI 5 mM glucose + 10% FBS, 1.71 µM | 89.8 | 97 | 93.6
RPMI 5 mM glucose + 10% FBS, 5.12 µM | 90.5 | 88.4 | 88.8
RPMI 5 mM glucose + 10% FBS, 15.4 µM | 73.3 | 95.7 | 93.4
RPMI 5 mM glucose + 10% FBS, 46.1 µM | 50.6 | 52 | 84
RPMI 5 mM glucose + 10% dialyzed FBS, 0.000781 µM | 86 | 83.8 | 112
RPMI 5 mM glucose + 10% dialyzed FBS, 0.00234 µM | 85.3 | 92.3 | 90.4
RPMI 5 mM glucose + 10% dialyzed FBS, 0.00702 µM | 78.6 | 86.5 | 87.3
RPMI 5 mM glucose + 10% dialyzed FBS, 0.0211 µM | 90.4 | 83.4 | 113
RPMI 5 mM glucose + 10% dialyzed FBS, 0.0632 µM | 95.3 | 89.5 | 91.7
RPMI 5 mM glucose + 10% dialyzed FBS, 0.19 µM | 92.4 | 85 | 29.6
RPMI 5 mM glucose + 10% dialyzed FBS, 0.569 µM | 79.4 | 86.7 | 99.6
RPMI 5 mM glucose + 10% dialyzed FBS, 1.71 µM | 83.7 | 87.1 | 110
RPMI 5 mM glucose + 10% dialyzed FBS, 5.12 µM | 88.7 | 85.1 | 92.3
RPMI 5 mM glucose + 10% dialyzed FBS, 15.4 µM | 70.5 | 83.7 | 110
RPMI 5 mM glucose + 10% dialyzed FBS, 46.1 µM | 45.3 | 53 | 80.4

AUC of viability dose-response curve
Conditions | NOMO1 [4] | P12-Ichikawa [5] | SEM cells [6]
HPLM + 10% dialyzed FBS | 446 | 437 | 419
RPMI 5 mM glucose + 10% FBS | 406 | 443 | 392
RPMI 5 mM glucose + 10% dialyzed FBS | 396 | 404 | 441

COc1cc2ncn(-c3cc(OCc4ccccc4C(F)(F)F)c(C(N)=O)s3)c2cc1OC
cell viability [%]
Conditions | NOMO1 [1] | P12-Ichikawa [2] | SEM cells [3]
HPLM + 10% dialyzed FBS, 0.000781 µM | 124 | 114 | 120
HPLM + 10% dialyzed FBS, 0.00234 µM | 117 | 122 | 121
HPLM + 10% dialyzed FBS, 0.00702 µM | 126 | 108 | 116
HPLM + 10% dialyzed FBS, 0.0211 µM | 117 | 112 | 115
HPLM + 10% dialyzed FBS, 0.0632 µM | 120 | 121 | 115
HPLM + 10% dialyzed FBS, 0.19 µM | 115 | 110 | 104
HPLM + 10% dialyzed FBS, 0.569 µM | 89.2 | 95.2 | 110
HPLM + 10% dialyzed FBS, 1.71 µM | 46.1 | 45.2 | 65.3
HPLM + 10% dialyzed FBS, 5.12 µM | 42.2 | 13.8 | 28.6
HPLM + 10% dialyzed FBS, 15.4 µM | 41.2 | 11.9 | 22.4
HPLM + 10% dialyzed FBS, 46.1 µM | 24.9 | 11.8 | 20.7
RPMI 5 mM glucose + 10% FBS, 0.000781 µM | 99.2 | 117 | 124
RPMI 5 mM glucose + 10% FBS, 0.00234 µM | 111 | 112 | 121
RPMI 5 mM glucose + 10% FBS, 0.00702 µM | 116 | 121 | 122
RPMI 5 mM glucose + 10% FBS, 0.0211 µM | 111 | 112 | 115
RPMI 5 mM glucose + 10% FBS, 0.0632 µM | 120 | 110 | 124
RPMI 5 mM glucose + 10% FBS, 0.19 µM | 118 | 111 | 105
RPMI 5 mM glucose + 10% FBS, 0.569 µM | 110 | 115 | 128
RPMI 5 mM glucose + 10% FBS, 1.71 µM | 94.9 | 71.5 | 74
RPMI 5 mM glucose + 10% FBS, 5.12 µM | 26.3 | 12.2 | 18.4
RPMI 5 mM glucose + 10% FBS, 15.4 µM | 24.6 | 11.8 | 13.4
RPMI 5 mM glucose + 10% FBS, 46.1 µM | 17.6 | 11.1 | 13.1
RPMI 5 mM glucose + 10% dialyzed FBS, 0.000781 µM | 108 | 113 | 108
RPMI 5 mM glucose + 10% dialyzed FBS, 0.00234 µM | 122 | 111 | 112
RPMI 5 mM glucose + 10% dialyzed FBS, 0.00702 µM | 112 | 111 | 124
RPMI 5 mM glucose + 10% dialyzed FBS, 0.0211 µM | 113 | 112 | 120
RPMI 5 mM glucose + 10% dialyzed FBS, 0.0632 µM | 112 | 123 | 116
RPMI 5 mM glucose + 10% dialyzed FBS, 0.19 µM | 123 | 109 | 142
RPMI 5 mM glucose + 10% dialyzed FBS, 0.569 µM | 117 | 103 | 139
RPMI 5 mM glucose + 10% dialyzed FBS, 1.71 µM | 85.2 | 85.3 | 103
RPMI 5 mM glucose + 10% dialyzed FBS, 5.12 µM | 32.4 | 19.5 | 25.9
RPMI 5 mM glucose + 10% dialyzed FBS, 15.4 µM | 30.1 | 17.4 | 20.3
RPMI 5 mM glucose + 10% dialyzed FBS, 46.1 µM | 24.9 | 12.8 | 19.5

AUC of viability dose-response curve
Conditions | NOMO1 [4] | P12-Ichikawa [5] | SEM cells [6]
HPLM + 10% dialyzed FBS | 349 | 333 | 358
RPMI 5 mM glucose + 10% FBS | 375 | 352 | 354
RPMI 5 mM glucose + 10% dialyzed FBS | 375 | 364 | 372

O=C(O)Cc1cccc(OCCCN(Cc2cccc(C(F)(F)F)c2Cl)CC(c2ccccc2)c2ccccc2)c1
cell viability [%]
Conditions | NOMO1 [1] | P12-Ichikawa [2] | SEM cells [3]
HPLM + 10% dialyzed FBS, 0.000781 µM | 122 | 117 | 109
HPLM + 10% dialyzed FBS, 0.00234 µM | 123 | 115 | 118
HPLM + 10% dialyzed FBS, 0.00702 µM | 136 | 116 | 109
HPLM + 10% dialyzed FBS, 0.0211 µM | 110 | 121 | 97.8
HPLM + 10% dialyzed FBS, 0.0632 µM | 114 | 119 | 113
HPLM + 10% dialyzed FBS, 0.19 µM | 108 | 115 | 102
HPLM + 10% dialyzed FBS, 0.569 µM | 118 | 116 | 110
HPLM + 10% dialyzed FBS, 1.71 µM | 99.3 | 108 | 100
HPLM + 10% dialyzed FBS, 5.12 µM | 106 | 108 | 93.5
HPLM + 10% dialyzed FBS, 15.4 µM | 118 | 102 | 103
HPLM + 10% dialyzed FBS, 46.1 µM | 114 | 108 | 94.5
RPMI 5 mM glucose + 10% FBS, 0.000781 µM | – | – | 98.3
RPMI 5 mM glucose + 10% FBS, 0.00234 µM | – | – | 93.6
RPMI 5 mM glucose + 10% FBS, 0.00702 µM | – | – | 95.1
RPMI 5 mM glucose + 10% FBS, 0.0211 µM | – | – | 101
RPMI 5 mM glucose + 10% FBS, 0.0632 µM | – | – | 86.3
RPMI 5 mM glucose + 10% FBS, 0.19 µM | – | – | 84.5
RPMI 5 mM glucose + 10% FBS, 0.569 µM | – | – | 92
RPMI 5 mM glucose + 10% FBS, 1.71 µM | – | – | 89.5
RPMI 5 mM glucose + 10% FBS, 5.12 µM | – | – | 87.3
RPMI 5 mM glucose + 10% FBS, 15.4 µM | – | – | 84.8
RPMI 5 mM glucose + 10% FBS, 46.1 µM | – | – | 96.4
RPMI 5 mM glucose + 10% dialyzed FBS, 0.000781 µM | – | 119 | 111
RPMI 5 mM glucose + 10% dialyzed FBS, 0.00234 µM | – | 119 | 111
RPMI 5 mM glucose + 10% dialyzed FBS, 0.00702 µM | – | 119 | 109
RPMI 5 mM glucose + 10% dialyzed FBS, 0.0211 µM | – | 124 | 135
RPMI 5 mM glucose + 10% dialyzed FBS, 0.0632 µM | – | 124 | 119
RPMI 5 mM glucose + 10% dialyzed FBS, 0.19 µM | – | 122 | 113
RPMI 5 mM glucose + 10% dialyzed FBS, 0.569 µM | – | 118 | 126
RPMI 5 mM glucose + 10% dialyzed FBS, 1.71 µM | – | 101 | 103
RPMI 5 mM glucose + 10% dialyzed FBS, 5.12 µM | – | 108 | 96.1
RPMI 5 mM glucose + 10% dialyzed FBS, 15.4 µM | – | 98.8 | 99.2
RPMI 5 mM glucose + 10% dialyzed FBS, 46.1 µM | – | 103 | 111

AUC of viability dose-response curve
Conditions | NOMO1 [4] | P12-Ichikawa [5] | SEM cells [6]
HPLM + 10% dialyzed FBS | 432 | 460 | 444
RPMI 5 mM glucose + 10% FBS | 461 | 442 | 437
RPMI 5 mM glucose + 10% dialyzed FBS | 465 | 450 | 456
